Experimental data reported in ChEMBL document CHEMBL1201862, “PubChem BioAssay data set” (2004).
Where a name gives a salt, the structure may show the parent alone.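 1) Cells in 96-well plates. 2) Compound, 48 h, 5 concentrations. 3) Linear interpolation between surrounding doses. 4) Unreached endpoint = highest concentration. Here, GI50 denotes the concentration required for 50% inhibition of growth.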 Activity calls are given as the source filed them. No stated cut-off is given here; in the data, active = GI50 up to about 1.1 µM and inactive = higher.

Key:
Assay in all cases: NCI-60 cell line screen, 48 h
UO-31 = test system: UO-31
NCI-H522 = test system: NCI-H522
A498 = test system: A498
SF-539 = test system: SF-539
XF498 = test system: XF498
SK-MEL-2 = test system: SK-MEL-2
SW-620 = test system: SW-620
U-251 = test system: U-251
RPMI-8226 = test system: RPMI-8226
Malme-3M = test system: Malme-3M
NCI-H23 = test system: NCI-H23
UACC-257 = test system: UACC-257
COLO 205 = test system: COLO 205
KM12 = test system: KM12
SK-OV-3 = test system: SK-OV-3
HOP-62 = test system: HOP-62
NCI/ADR-RES = test system: NCI/ADR-RES
MDA-MB-435 = test system: MDA-MB-435
MDA-N = test system: MDA-N
T47D = test system: T47D

SMILES	GI50 (UO-31)	GI50 (NCI-H522)	GI50 (A498)	GI50 (SF-539)	GI50 (XF498)	GI50 (SK-MEL-2)	GI50 (SW-620)	GI50 (U-251)	GI50 (RPMI-8226)	GI50 (Malme-3M)	GI50 (NCI-H23)	GI50 (UACC-257)	GI50 (COLO 205)	GI50 (KM12)	GI50 (SK-OV-3)	GI50 (HOP-62)	GI50 (NCI/ADR-RES)	GI50 (MDA-MB-435)	GI50 (MDA-N)	GI50 (T47D)
O=c1/c(=C/c2ccccc2F)sc2nc3ccccc3n12	> 100 µM (inactive)	92.7 µM (inactive)	> 100 µM (inactive)	74.3 µM (inactive)	> 100 µM (inactive)	> 100 µM (inactive)	> 100 µM (inactive)	38.7 µM (inactive)	> 100 µM (inactive)	> 100 µM (inactive)	> 100 µM (inactive)	> 100 µM (inactive)								
Cc1ccn2c(c1)nc1nc3ccccc3nc12	> 100 µM (inactive)	> 100 µM (inactive)		> 100 µM (inactive)	> 100 µM (inactive)	> 100 µM (inactive)	> 100 µM (inactive)	> 100 µM (inactive)	> 100 µM (inactive)		> 100 µM (inactive)	> 100 µM (inactive)	> 100 µM (inactive)	> 100 µM (inactive)	59.6 µM (inactive)	> 100 µM (inactive)				
CC1=NOC(=O)/C1=C/c1ccccc1O	> 100 µM (inactive)	> 100 µM (inactive)		> 100 µM (inactive)	> 100 µM (inactive)	> 100 µM (inactive)	20.4 µM (inactive)	> 100 µM (inactive)		> 100 µM (inactive)	> 100 µM (inactive)	> 100 µM (inactive)	> 100 µM (inactive)	> 100 µM (inactive)	> 100 µM (inactive)	> 100 µM (inactive)				
COc1cc(/C=C2\[C@H]3c4c(c(OC)c(C)c(OC)c4OC)C[C@@H](C(=O)N2Cc2ccccc2)N3C(=O)OCC(C)C)c(OC)c(C)c1OC	> 100 µM (inactive)	19.4 µM (inactive)	> 65.9 µM (inactive)	> 100 µM (inactive)	40.6 µM (inactive)	> 100 µM (inactive)	> 31.6 µM (inactive)	> 85.5 µM (inactive)	13.6 µM (inactive)	> 100 µM (inactive)	> 100 µM (inactive)	16.6 µM (inactive)	> 86.3 µM (inactive)	> 100 µM (inactive)	> 100 µM (inactive)	> 100 µM (inactive)				
CC(C)=C1CCC(CN2CCOCC2)C1=O (stereo not drawn)	18.1 µM (inactive)	0.0454 µM (active)	33.7 µM (inactive)	17.4 µM (inactive)	12.7 µM (inactive)	19 µM (inactive)	1.76 µM (inactive)	32.1 µM (inactive)	0.953 µM (active)	3.58 µM (inactive)	17.7 µM (inactive)	16.2 µM (inactive)	4.66 µM (inactive)	29.4 µM (inactive)	> 100 µM (inactive)	> 55.5 µM (inactive)	13.3 µM (inactive)	15.3 µM (inactive)	19.1 µM (inactive)	
Cc1ccc([N+](=O)[O-])cc1NC(=O)/C(=N/NC(=S)NN)C1SC(=S)NC1=O (stereo not drawn)	> 100 µM (inactive)	> 100 µM (inactive)	> 100 µM (inactive)	> 100 µM (inactive)	> 100 µM (inactive)	> 100 µM (inactive)	> 100 µM (inactive)	> 100 µM (inactive)	> 100 µM (inactive)	> 100 µM (inactive)	> 100 µM (inactive)	> 100 µM (inactive)	> 100 µM (inactive)	> 100 µM (inactive)	> 100 µM (inactive)	> 100 µM (inactive)				
C=CCc1cc(OC)c2c(c1)C(OC)CC(c1ccc(OC)c(OC)c1)O2 (stereo not drawn)	42.3 µM (inactive)		> 100 µM (inactive)	> 100 µM (inactive)	> 100 µM (inactive)	> 100 µM (inactive)	> 100 µM (inactive)	> 100 µM (inactive)	38 µM (inactive)	55.1 µM (inactive)		> 100 µM (inactive)	> 100 µM (inactive)	> 100 µM (inactive)	> 100 µM (inactive)	> 100 µM (inactive)				
CCn1c2c(c3ccccc31)[C@@H](c1ccc(Cl)cc1)CC1C(=O)N(c3ccccc3)C(=O)C21 (stereo partly drawn)	> 100 µM (inactive)	80.2 µM (inactive)	69.7 µM (inactive)	31.8 µM (inactive)	64.6 µM (inactive)	91.8 µM (inactive)	> 100 µM (inactive)	52.6 µM (inactive)	65 µM (inactive)	70.6 µM (inactive)	95.3 µM (inactive)	> 100 µM (inactive)	> 100 µM (inactive)	> 100 µM (inactive)	> 100 µM (inactive)	85.5 µM (inactive)				
Cc1nc(-c2nc(C)c(C(=O)NN(C)C)s2)sc1C(=O)NN(C)C	> 100 µM (inactive)	34.6 µM (inactive)	> 100 µM (inactive)	> 100 µM (inactive)	> 100 µM (inactive)	> 100 µM (inactive)		> 100 µM (inactive)	28.8 µM (inactive)	> 100 µM (inactive)	> 100 µM (inactive)	> 100 µM (inactive)	21.7 µM (inactive)	> 100 µM (inactive)	> 100 µM (inactive)	> 100 µM (inactive)				
COC1=CC(=Nc2c(Cl)cc(Cl)cc2OC(=O)c2ccc([N+](=O)[O-])cc2)C=C(OC)C1=O	11.9 µM (inactive)	9.23 µM (inactive)		5.81 µM (inactive)	8.39 µM (inactive)	15.8 µM (inactive)	13.5 µM (inactive)	13.8 µM (inactive)	5.04 µM (inactive)	15.5 µM (inactive)	9.12 µM (inactive)	11.7 µM (inactive)	17.5 µM (inactive)	15.5 µM (inactive)	16.5 µM (inactive)	21.5 µM (inactive)				
O=C1c2cccc3cccc(c23)C(=O)N1CCCNCCCCNCCCNCCCN1C(=O)c2cccc3cccc(c23)C1=O [BISNAPHTHALIMIDOPROPYL SPERMIDINE TRIHYDROBROMIDE]	6.5 µM (inactive)	0.0859 µM (active)	0.977 µM (active)	0.585 µM (active)		1.22 µM (inactive)	0.555 µM (active)	0.338 µM (active)	0.355 µM (active)	0.513 µM (active)	0.35 µM (active)	1.56 µM (inactive)	0.348 µM (active)	0.556 µM (active)	1.5 µM (inactive)	1.1 µM (active)	19.9 µM (inactive)	0.74 µM (active)	0.792 µM (active)	1.12 µM (inactive)
N#Cc1ccccc1NC(=O)C(=O)C1NC(=S)NC1=O (stereo not drawn)			> 100 µM (inactive)	> 100 µM (inactive)	> 100 µM (inactive)		> 100 µM (inactive)	> 100 µM (inactive)	> 100 µM (inactive)	> 100 µM (inactive)	> 100 µM (inactive)	> 100 µM (inactive)	> 100 µM (inactive)	> 100 µM (inactive)		> 100 µM (inactive)				
C=CCOC(=O)C1CCC(=O)N1C(=O)C(Cl)Cl (stereo not drawn)	> 100 µM (inactive)	> 100 µM (inactive)	> 100 µM (inactive)		17.7 µM (inactive)	> 100 µM (inactive)	> 100 µM (inactive)	> 100 µM (inactive)	> 100 µM (inactive)	> 100 µM (inactive)	> 100 µM (inactive)	> 100 µM (inactive)	> 100 µM (inactive)	> 100 µM (inactive)	> 100 µM (inactive)	> 100 µM (inactive)				
O=C(CC1(O)C(=O)Nc2c(Cl)cc(Cl)cc21)c1ccccc1 (stereo not drawn)	52.1 µM (inactive)	55.1 µM (inactive)	> 100 µM (inactive)	> 100 µM (inactive)	47.1 µM (inactive)	> 100 µM (inactive)	40.9 µM (inactive)		31.3 µM (inactive)	> 100 µM (inactive)	77.6 µM (inactive)	57 µM (inactive)	> 100 µM (inactive)		> 100 µM (inactive)					
CC(=O)NC(CCCCN)C(=O)NCc1ccccc1 (stereo not drawn)	> 100 µM (inactive)	> 100 µM (inactive)	> 100 µM (inactive)	> 100 µM (inactive)	> 100 µM (inactive)	> 100 µM (inactive)	> 100 µM (inactive)	> 100 µM (inactive)	> 100 µM (inactive)	> 100 µM (inactive)	> 100 µM (inactive)	> 100 µM (inactive)	> 100 µM (inactive)	> 100 µM (inactive)	> 100 µM (inactive)	> 100 µM (inactive)				
Clc1ccc(Cl)c(/N=N\c2cc3c4c(c2)CCN4CCC3)c1	> 10 µM (inactive)	> 10 µM (inactive)	> 10 µM (inactive)	> 10 µM (inactive)		> 10 µM (inactive)	> 10 µM (inactive)	> 10 µM (inactive)	> 10 µM (inactive)	> 10 µM (inactive)	> 10 µM (inactive)	> 10 µM (inactive)	> 10 µM (inactive)	> 10 µM (inactive)	> 10 µM (inactive)	> 10 µM (inactive)	> 10 µM (inactive)	> 10 µM (inactive)	> 10 µM (inactive)	> 10 µM (inactive)
CC[C@@H]1C[C@H]2CC3c4[nH]c5ccc(O)cc5c4CCN(C2)C31	> 100 µM (inactive)			> 100 µM (inactive)	> 100 µM (inactive)	> 100 µM (inactive)	> 100 µM (inactive)	> 100 µM (inactive)	> 100 µM (inactive)	> 100 µM (inactive)	> 100 µM (inactive)	> 100 µM (inactive)	> 100 µM (inactive)	> 100 µM (inactive)		> 100 µM (inactive)				
